Where two headings read alike, the source gives them in different places.
Experiments:
[1] = test system: Southern root-knot nematode (Meloidogyne incognita); experiment: Root-knot index on tomato seedlings in soil contaminated with Southern root-knot nematode (Test Example 3); assay type: in vivo; settings: 3% granule, checked 25 days after transplanting
Method: A predetermined quantity of a 3% granule of each compound was mixed with a soil contaminated with Southern root-knot nematode (Meloidogyne incognita). 2 days after treatment of the compound, 3 to 4 leaf stage tomato seedlings were transplanted, and the root-knot index was checked 25 days later.
The root-knot index was determined with the following standard for nemotoidal evaluation.
2 Moderate number of root-knots found
4 Very many root-knots found

second instar larvae = experiment: Mortality of second instar larvae on pot-grown cabbage treated with a 1000 ppm suspension (Test Example 2); assay type: in vivo
Method: 30 ml of a 1000 ppm suspension of each sample compound (30% wettable powder) was poured into a pot in which cabbage (2 to 3 leaf stage) was grown, and the pot was placed in a greenhouse enclosed by glass. 3 days after applying the sample compound, the cabbage was covered by a cylindrical metal netting having a diameter of 7.5 cm and a height of 20 cm and 10 second instar larvae were released in the netting. 48 hours after applying the numbers of living and dead insects were checked. The test was repeated twice.

[2] = test system: Green rice leafhopper (Nephotettix cincticeps); experiment: Mortality of Green rice leafhopper female adults on pot-grown rice plants treated with a 1000 ppm suspension (Test Example 1); assay type: in vivo
Method: 10 ml of a 1000 ppm suspension of each sample compound (30% wettable powder) was poured into a pot in which rice plant (1.5 leaf stage) was grown, and the pot was placed in a greenhouse enclosed by glass. 3 days after applying the sample compound, the rice plant was covered by a cylindrical metal netting having a diameter of 7.5 cm and a height of 40 cm and 10 female adults of Green rice leafhopper (Nephotettix cincticeps) were released in the netting. The numbers of living and dead insects were checked 48 hours after applying. The test was repeated twice.

[3] = Acute oral toxicity in mice (Toxicity Test Example); settings: mouse, in vivo, male mice, 7 days after administration, Litchfield-Wilcoxon Method
Method: Representative examples of the compound of this invention were administered orally to mice (.male.) and the acute toxicities thereof were tested. LD50 was calculated from the percentage of dead mice according to the Litchfield-Wilcoxon Method 7 days after the administration.

[4] = test system: warm-blooded animals and fishes; settings: prior art statement; cited from earlier work

Row | SMILES | Root-Knot Index ([1]; Active Ingredient 250 g/a) | Root-Knot Index ([1]; Active Ingredient 500 g/a) | mortality at 1000 ppm (second instar larvae; 48 h) [%] | mortality at 1000 ppm ([2]; 48 h) [%] | LD50 at 168 h [3] [mg/kg] | toxicity to warm-blooded animals and fishes [4] | mortality at 1000 ppm (second instar larvae; 30 ml of 1000 ppm suspension (30% wettable powder) per pot, larvae released 3 days after applying, checked at 48 hours, repeated twice, read-out: Mortality) [%] | mortality at 1000 ppm ([2]; 10 ml of 1000 ppm suspension (30% wettable powder) per pot, insects released 3 days after applying, checked at 48 hours, repeated twice, read-out: Mortality) [%]
1 | CN(C(=O)NS(=O)(=O)Cl)C(=O)Oc1cccc2c1OC(C)(C)C2 [Compound No. 1, 2,3-Dihydro-2,2-dimethylbenzofuran-7-yl N-(chlorosulfonylcarbamoyl) N-methylcarbamate] | 2 | 1 | 100 | 100 | – | – | – | –
2 | CNS(=O)(=O)NC(=O)N(C)C(=O)Oc1cccc2c1OC(C)(C)C2 [Compound No. 2, 2,3-Dihydro-2,2-dimethylbenzofuran-7-yl N-(methylsulfamoylcarbamoyl) N-methylcarbamate] | 3 | 2 | 100 | 100 | – | – | – | –
3 | CCNS(=O)(=O)NC(=O)N(C)C(=O)Oc1cccc2c1OC(C)(C)C2 [Compound No. 3, 2,3-Dihydro,2,2-dimethylbenzofurane-7-yl N-(ethylsulfamoylcarbamoyl) N-methylcarbamate] | 2 | 1 | 100 | 100 | 170 | – | – | –
4 | CC(C)NS(=O)(=O)NC(=O)N(C)C(=O)Oc1cccc2c1OC(C)(C)C2 [Compound No. 4] | 2 | 1 | 100 | 100 | – | – | – | –
5 | CCCCNS(=O)(=O)NC(=O)N(C)C(=O)Oc1cccc2c1OC(C)(C)C2 [Compound No. 5, 2,3-dihydro-2,2-dimethylbenzofuran-7-yl N-(butylsulfamoylcarbamoyl) N-methylcarbamate] | 2 | 1 | 100 | 100 | 200 | – | – | –
6 | CNC(=O)Oc1cccc2c1OC(C)(C)C2 [Control, 2,3-dihydro-2,2-dimethylbenzofuran-7-yl N-methyl-carbamate] | – | – | – | – | – | extremely toxic to warm-blooded animals and fishes | – | –
7 | CNC(=O)Oc1cccc2c1OC(C)(C)C2 [Control] | – | – | – | – | 5 | – | 100 | 100
8 | C#CCNS(=O)(=O)NC(=O)N(C)C(=O)Oc1cccc2c1OC(C)(C)C2 [compound 7, 2,3-dihydro-2,2-dimethylbenzofuran-7-yl N-(propargylsulfamoylcarbamoyl) N-methylcarbamate] | 2 | 1 | 100 | 100 | – | – | – | –
9 | CN(C(=O)NS(=O)(=O)Nc1ccccc1Cl)C(=O)Oc1cccc2c1OC(C)(C)C2 [compound 8] | 3 | 2 | – | 90 | – | – | – | –
10 | COc1ccccc1NS(=O)(=O)NC(=O)N(C)C(=O)Oc1cccc2c1OC(C)(C)C2 [compound 9] | 3 | 2 | – | 90 | – | – | – | –
11 | COC(=O)c1ccccc1NS(=O)(=O)NC(=O)N(C)C(=O)Oc1cccc2c1OC(C)(C)C2 [compound 10] | 2 | 1 | – | 90 | – | – | – | –
12 | CCOC(=O)c1ccc(NS(=O)(=O)NC(=O)N(C)C(=O)Oc2cccc3c2OC(C)(C)C3)cc1 [compound 11] | 3 | 2 | – | 90 | – | – | – | –
13 | CN(C(=O)NS(=O)(=O)Nc1nccs1)C(=O)Oc1cccc2c1OC(C)(C)C2 [compound 12] | 3 | 2 | – | 100 | – | – | – | –
14 | CN(C(=O)NS(=O)(=O)Nc1ccccn1)C(=O)Oc1cccc2c1OC(C)(C)C2 [compound 13] | 3 | 2 | – | 100 | – | – | – | –
15 | CONS(=O)(=O)NC(=O)N(C)C(=O)Oc1cccc2c1OC(C)(C)C2 [compound 14, 2,3-dihydro-2,2-dimethylbenzofuran-7-yl N-(methoxysulfamoylcarbamoyl) N-methylcarbamate] | 3 | 2 | – | 100 | – | – | – | –
16 | CCCNS(=O)(=O)NC(=O)N(C)C(=O)Oc1cccc2c1OC(C)(C)C2 [compound 15, 2,3-dihydro-2,2-dimethylbenzofuran-7-yl N-(propylsulfamoylcarbamoyl) N-methylcarbamate] | 2 | 1 | 100 | 100 | – | – | – | –
17 | CCC(C)NS(=O)(=O)NC(=O)N(C)C(=O)Oc1cccc2c1OC(C)(C)C2 (centres unmarked) [compound 16] | 2 | 1 | 100 | 100 | – | – | – | –
18 | CN(C(=O)NS(=O)(=O)NC(C)(C)C)C(=O)Oc1cccc2c1OC(C)(C)C2 [compound 17] | 2 | 1 | 100 | 100 | – | – | – | –
19 | CN(C(=O)NS(=O)(=O)NC1CCCC1)C(=O)Oc1cccc2c1OC(C)(C)C2 [compound 18] | – | – | – | 80 | – | – | – | –
20 | CN(C(=O)NS(=O)(=O)NC1CCCCC1)C(=O)Oc1cccc2c1OC(C)(C)C2 [compound 19] | – | – | – | 80 | – | – | – | –
